Assay: RP, Thermo Scientific Acclaim RSLC 120 C18, 100 × 2.1 mm, 2.2 µm, 30 °C, 0.2 mL/min, estimated dead time 1.1 min; A: 90% water + 10% methanol + 0.01% formic acid + 5 mM ammonium formate, pH 3.61; B: methanol + 0.01% formic acid + 5 mM ammonium formate, pH 3.61; gradient (min/%B) 0/1 1/1 2/39 13/99.9 15/99.9 15.1/1 20.1/1
Conditions: stereoisomer not certain

LC retention time [min] | Compound
5.06 | C[N+]1(CCC(O)(c2ccccc2)c2cccs2)CCOCC1 (stereo not drawn) [Tiemonium]
9.27 | C#CC(C)OC(=O)Nc1cccc(Cl)c1 (stereo not drawn) [Chlorbufam]
10.2 | CCCCN1CC(=O)N2C(Cc3c([nH]c4ccccc34)C2c2ccc3c(c2)OCO3)C1=O (stereo not drawn) [Tadalafil-n-Butyl]
5.24 | CCCN1CC(NS(=O)(=O)N(CC)CC)CC2Cc3c(O)cccc3CC21 (stereo not drawn) [Quinagolide]
9.09 | CCCc1nn(C)c2c(=O)[nH]c(-c3cc(C(=O)CN4CCN(CC)C(=O)C4)ccc3OCC)nc12 [Oxohongdenafil]
7.83 | OCCN1CCN(CCCN2c3ccccc3C=Cc3ccccc32)CC1 [Opipramol]
1.43 | Nc1[nH]c(=O)ncc1F [Cytosine-5-Fluoro (broad peak)]
6.59 | CN(C)CCCC1(c2ccc(F)cc2)OCc2cc(C#N)ccc21 (stereo not drawn) [Citalopram]
8.42 | O=c1[nH]c2ccccc2n1CCCN1CCN(C(c2ccccc2)c2ccccc2)CC1 [Oxatomide]
7.97 | CN1C2CCC1CC(OC(c1ccccc1)c1ccccc1)C2 (stereo not drawn) [Benzatropine]
3.48 | Nc1ccc(S(=O)(=O)Nc2ncccn2)cc1 [Sulfadiazine]
6.99 | CC(Cc1ccc(C(C)C(=O)O)cc1)C(=O)O (stereo not drawn) [Ibuprofen-Carboxy]
9.85 | CCOC(=O)C=C1SC(N2CCCCC2)C(=O)N1CC (stereo not drawn) [Piprozolin]
6.58 | CC(C)(C)NCC(O)COc1ccc(NC(=O)NC2CCCCC2)cc1 (stereo not drawn) [Talinolol]
7.46 | Nc1ncnc(Nc2ccc(Cl)cc2)n1 [Chlorazanil]
7.28 | CCOc1ccccc1OC(c1ccccc1)C1CNCCO1 (stereo not drawn) [Reboxetine]
9.99 | CN(C)C(=O)Nc1ccc(Oc2ccc(Cl)cc2)cc1 [Chloroxuron (Chloroxifenidim)]
5.18 | CN(C)CCOC(C)(c1ccccc1)c1ccccn1 (stereo not drawn) [Doxylamine]
8.86 | COC(=O)COCCN1CCN(C(c2ccccc2)c2ccc(Cl)cc2)CC1 (stereo not drawn) [Cetirizine-Methyl ester]
11 | CCOC(=O)C(C)N(C(=O)c1ccccc1)c1ccc(Cl)c(Cl)c1 (stereo not drawn) [Benzoylprop-ethyl]
9.26 | CN(C)CCCn1c2c(c3ccccc31)CCCCCC2 [Iprindol]
10.6 | CCCc1nc(C)c2c(=O)[nH]c(-c3cc(S(=O)(=O)N4CCCCC4)ccc3OCC)nn12 [Vardenafil-Pseudo]

LC retention time [min] | Compound
11.1 | COC(=O)C1=C(C)NC(C)=C(C(=O)OC(C)(C)CN(C)CCC(c2ccccc2)c2ccccc2)C1c1cccc([N+](=O)[O-])c1 (stereo not drawn) [Lercanidipine]
8.33 | CNCC(C)CN1c2ccccc2Sc2ccc(OC)cc21 (stereo not drawn) [Levomepromazine-Nor]
8.25 | COC(=O)Nc1nc2ccc(C(=O)c3ccccc3)cc2[nH]1 [Mebendazole]
9.69 | CC(C)(C)c1ccc(C(O)CCCN2CCC(C(O)(c3ccccc3)c3ccccc3)CC2)cc1 (stereo not drawn) [Terfenadine]
6.14 | CNCCCC(C#N)(c1ccc(OC)c(OC)c1)C(C)C (stereo not drawn) [D617 (met. of verapamil)]
7.53 | CC(CN1c2ccccc2Sc2ccccc21)N(C)C (stereo not drawn) [Promethazine]
5.73 | CC(C)Nc1nc(N)nc(Cl)n1 [Atrazine-desethyl]
8.59 | OC(c1cc(C(F)(F)F)nc2c(C(F)(F)F)cccc12)C1CCCCN1 (stereo not drawn) [Mefloquine]
8.79 | CCNc1nc(NC(C)CC)nc(OC)n1 (stereo not drawn) [Secbumeton]
7.52 | CC(CN(C)C)CN1c2ccccc2Sc2ccc(C#N)cc21 (stereo not drawn) [Cyamemazine]
8.34 | CN(C)C(CCOc1cccc2ccccc12)c1ccccc1 (stereo not drawn) [Dapoxetine]
4.21 | Cc1ncc([N+](=O)[O-])n1CCCO [Ternidazole]
8.31 | COC(=O)C1=C(C)NC(C)=C(C(=O)OC)C1c1ccccc1[N+](=O)[O-] [Nifedipine]
3.09 | Nc1cc(Cl)c(NC2=NCCN2)c(Cl)c1 [Apraclonidin]
12.4 | CCC(=O)OC(OP(=O)(CCCCc1ccccc1)CC(=O)N1CC(C2CCCCC2)CC1C(=O)O)C(C)C (stereo not drawn) [Fosinopril]
10.7 | CC(=O)C1CCC2C3C=CC4=CC(=O)CCC4(C)C3CCC12C (stereo not drawn) [Dydrogesterone]
4.19 | O=C1OCCN1N=Cc1ccc([N+](=O)[O-])o1 [Furazolidone]
6.73 | COc1cc(N)c(Cl)cc1C(=O)NC1CCN(CCCOc2ccc(F)cc2)CC1OC (stereo not drawn) [Cisapride]
7.89 | CN1CCC(=C2c3ccccc3C=Cc3ccccc32)CC1 [Cyproheptadine]
11.8 | CCC1CCCC(OC2CCC(N(C)C)C(C)O2)C(C)C(=O)C2=CC3C(C=C(C)C4CC(OC5OC(C)C(OC)C(OC)C5OC)CC43)C2CC(=O)O1 (stereo not drawn) [Spinosad D]
11.2 | CCCCCCCCCCCC[N+](C)(C)Cc1ccccc1 [Benzododecinium (Benzyl-dimethyl-dodecylammonium)]

The next lines start with the compound.

Compound | LC retention time [min]
CCC1CN2CCC3(O)C(=Nc4cccc(OC)c43)C2CC1C(=COC)C(=O)OC (stereo not drawn) [Mitragynine-7-Hydroxy] | 5.95
O=C1CN(O)C(c2ccccc2)=c2cc(Cl)ccc2=N1 [Demoxepam] | 7.14
COP(=S)(OC)Oc1cc(Cl)c(I)cc1Cl [Iodofenphos (Jodfenphos)] | 12.7
C=CCC(C(=O)NC(N)=O)C(C)C (stereo not drawn) [Apronalide] | 6.94
CCCN(CCC)c1c([N+](=O)[O-])cc(C(C)C)cc1[N+](=O)[O-] [Isopropalin] | 13.2
CC(C)C(Br)C(=O)NC(N)=O (stereo not drawn) [Bromural (Bromisoval)] | 6.17
COc1ccc2c3c1OC1C(=O)CCC4(O)C(C2)N(C)CCC314 (stereo not drawn) [Oxycodone] | 3.61
CNC(C)Cc1ccccc1 (stereo not drawn) [Amphetamine-Methyl (methamphetamine)] | 4.21
CC(C)Oc1cccc(NC(=O)c2ccccc2C(F)(F)F)c1 [Flutolanil] | 9.52
CCCCCn1nc(C(=O)Oc2cccc3ccccc23)c2ccccc21 [SDB-005] | 13.1
CC=C1CC(C)C(C)(O)C(=O)OCC2=CC[N+]3([O-])CCC(OC1=O)C23 (stereo not drawn) [Senecionine-N-oxide] | 5.07
COC(=O)N(C(=O)N1COC2(C(=O)OC)Cc3cc(Cl)ccc3C2=N1)c1ccc(OC(F)(F)F)cc1 (stereo not drawn) [Indoxacarb] | 11.6
CCCCCn1nc(C(=O)NC23CC4CC(CC(C4)C2)C3)c2ccccc21 [AKB48 (APINACA)] | 14
O=c1c2cc(F)ccc2nc(-n2cncn2)n1-c1ccc(Cl)cc1Cl [Fluquinconazole] | 10.1
OC(c1ccccc1)(c1ccccc1)C1CCNCC1 [Azacyclonol] | 6.19
NCCc1ccccc1 [Phenethylamine (2-)] | 3.57
CC(Cc1ccccc1)NCc1ccccc1Cl (stereo not drawn) [Clobenzorex] | 6.82
CCc1cc2c(s1)-n1cnnc1CN=C2c1ccccc1Cl [Metizolam (Desmethyletizolam)] | 7.93
CN1CCCCC1Cn1cc(C(=O)c2ccccc2I)c2ccccc21 (stereo not drawn) [AM-2233] | 7.11
CCOP(=O)(OCC)OC(=CCl)c1ccc(Cl)cc1Cl (mixture of isomers) [Chlorfenvinphos (E/Z) Peak 1 (Main)] | 11

Compound | LC retention time [min]
O=C(c1cccc2ccccc12)c1cn(CCN2CCOCC2)c2ccccc12 [JWH-200] | 9.88
CCCCCn1cc(C(=O)NCc2ccccc2)c2ccccc21 [SDB-006] | 11.2
Cc1cccc2sc3nncn3c12 [Tricyclazole] | 5.93
CCOC1OC(C(=O)O)C(O)C(O)C1O (stereo not drawn) [EtG (Na)] | 1.52
C=C(Cl)CSC(=S)N(CC)CC [Vegadex (Sulfallate)] | 11.1
CCN(CC)CCOC(=O)C(O)(c1ccccc1)c1ccccc1 [Benactyzine] | 6.08
Cc1cc(C)nc(Nc2ccccc2)n1 [Pyrimethanil] | 9.44
CC(=O)C1(O)CCC2C3CCC4=CC(=O)CCC4(C)C3CCC21C (stereo not drawn) [17alpha-Hydroxyprogesterone] | 10
O=C1Nc2ccc([N+](=O)[O-])cc2C(c2ccccc2F)=NC1O (stereo not drawn) [Nifoxipam] | 6.58
CCOP(=S)(OCC)SCn1c(=O)oc2cc(Cl)ccc21 [Phosalone] | 11.3
CC1(C)CON(Cc2ccccc2Cl)C1=O [Clomazone  (Command)] | 8.89
Cc1ccccc1CN1CCN(CCOC(c2ccccc2)c2ccccc2Cl)CC1 (stereo not drawn) [Chlorbenzoxamine] | 10.8
COc1cc(OC)n2nc(S(=O)(=O)Nc3c(Cl)ccc(C)c3Cl)nc2n1 [Metosulam] | 7.1
CC1CN(C2CCC(C#N)(c3ccc(F)cc3)CC2)CCC1(C(=O)O)c1ccccc1 (stereo not drawn) [Levocabastine] | 6.95
CCc1cnc(C2=NC(C)(C(C)C)C(=O)N2)c(C(=O)O)c1 (stereo not drawn) [Imazethapyr] | 5.6
CCSC(=O)N(CC)C1CCCCC1 [Cycloate] | 11.7
CCCCCCn1cc(C(=O)c2cccc3ccccc23)cc1-c1ccccc1 [JWH-147] | 13.3
CCCCCCCC[N+](C)(C)C [Trimethyloctylammonium] | 6.08
COCC(=O)N(c1c(C)cccc1C)C(C)C(=O)OC (stereo not drawn) [Metalaxyl] | 8.22
O=C1CC2OCC=C3CN4CCC56c7ccccc7N1C5C2C3CC46 (stereo not drawn) [Strychnine] | 4.16

— the RepoRT retention time repository (doi:10.1021/acs.analchem.2c02893)
